Results as given in patent US7887840B2, “Pharmaceutical compositions comprising drug and concentration-enhancing polymers” (Bend Research, Inc., priority 2001, dated 2011).
Counter-ions that a name gives are not always drawn.

Assay: in vitro dissolution test using a microcentrifuge method
Format: physicochemical
Design: AUC / AUC90: concentration or dose not given beside the values
Conditions: for Ziprasidone Concentration: 50 mM MOPS buffer with 150 mM NaCl, pH 7.4, 37° C., supernatant after centrifugation
Description: The dissolution of ziprasidone from the complex mixed with various concentration-enhancing polymers was evaluated in an in vitro dissolution test using a microcentrifuge method. […] The polymer amounts are expressed as wt % based on the weight of the complex. […] Ltd., Tokyo, Japan). […] Tests were performed in duplicate. The tubes were placed in a 37° C. temperature-controlled chamber, and 1.8 mL of 50 mM 4-morpholinepropanesulfonic acid (MOPS) buffer with 150 mM NaCl (pH 7.4) was added. The samples were quickly mixed using a vortex mixer for about 60 seconds. […] The resulting supernatant solution was then sampled and diluted 1:4 (by volume) with methanol and then analyzed by high-performance liquid chromatography (HPLC). A Phenomenex Ultracarb 5 ODS HPLC column was used with a mobile phase of 60 vol. % of 0.02 M KH2PO4 (pH 3.0), and 40 vol. % acetonitrile. UV detection was measured at 254 nm. The contents of the tubes were mixed on the vortex mixer and allowed to stand undisturbed at 37° C. until the next sample was taken. […] The concentrations of drug obtained in these samples are shown below. The dissolution of ziprasidone from these complexes mixed with concentration-enhancing polymer was evaluated using the in vitro dissolution test described in the Examples above.

SMILES: O=C1Cc2cc(CCN3CCN(c4nsc5ccccc45)CC3)c(Cl)cc2N1 [Example C2, ziprasidone mesylate]
- AUC90 (dissolution AUC 0-90 min, MOPS buffer pH 7.4, 37° C.): 100 µg·min/mL
- AUC (dissolution AUC up to 0 min, MOPS buffer pH 7.4, 37° C.): 0 µg·min/mL
- AUC (dissolution AUC up to 4 min, MOPS buffer pH 7.4, 37° C.): 0 µg·min/mL
- AUC (dissolution AUC up to 10 min, MOPS buffer pH 7.4, 37° C.): 0 µg·min/mL
- AUC (dissolution AUC up to 30 min, MOPS buffer pH 7.4, 37° C.): 0 µg·min/mL
- AUC (dissolution AUC up to 60 min, MOPS buffer pH 7.4, 37° C.): 0 µg·min/mL
- AUC (dissolution AUC up to 90 min, MOPS buffer pH 7.4, 37° C.): 100 µg·min/mL
- Cmax,90 (maximum ziprasidone concentration within 90 min, MOPS buffer pH 7.4, 37° C.): 3000 ng/mL
- Ziprasidone Concentration (time 0 min): 0 µg/mL
- Ziprasidone Concentration (time 4 min): 3 µg/mL
- Ziprasidone Concentration (time 10 min): 1 µg/mL
- Ziprasidone Concentration (time 30 min): 1 µg/mL
- Ziprasidone Concentration (time 60 min): 1 µg/mL
- Ziprasidone Concentration (time 90 min): 1 µg/mL
